Six compounds from patent US7129271B2, “Compounds for pest control and methods for their use” (The United States of America as represented by the …, priority 2000, dated 2006) can be followed below.

Series [1] deals with I. scapularis nymphs, X. cheopis adults, and Ae. aegypti adults. Description: Initial screening against all three arthropods (Example 9). Format: in vivo. The settings on record: 24 hours exposure; ticks, fleas, mosquitoes. Here is the method:
Valencene-13-aldehyde was prepared by oxidation of valencene with SeO2. […] Commercial samples of nootkatone for comparison were obtained from Bedoukian Research, Inc., Danbury, Conn. (semi-synthetic crystalline) and Frutarom, Inc. N.J. (from grapefruit oil). […] The compounds identified by an asterisk—nos.

The subject of series [2] is ticks, fleas, and mosquitos. The series can be described thus: Bioassay of Example 2 on ticks, fleas and mosquitos (Examples 4 and 6). The class given is in vivo. Here is the method: (§1) Samples of the compounds listed below Were obtained from Dr. Karchesy, a co-inventor, and screened for biocidal activities against nymphal Ixodes scapularis. In this example, 2% acetone solutions (wt./vol.) of the compounds were applied to inner surfaces of 2-dram friction cap vials. Vials and caps were treated then allowed to dry for a minimum of 4 hours before placing 10 nymphs in each container. These same vials were used to challenge additional nymphs and adult I. scapularis ticks and adult Xenopsylla cheopis fleas through five weeks to observe any possible residual activity.
Nootkatol was tested using the bioassay presented in Example 2.
Two nootkatone samples were compared to nootkatone isolated from Alaska yellow cedar using the method presented in Example 1. The first sample was a natural extract of nootkatone taken from grapefruit oil purchased commercially. The second sample was a synthetically produced nootkatone purchased commercially.
Both samples were compared to the nootkatone originating from Alaska yellow cedar in terms of their biocidal activities. Using a bioassay method similar to that presented in Example 2, no differences were discernible among the nootkatone samples in terms of their biocidal effect on ticks, fleas and mosquitos.

The next series has as its system I. scapularis nymphs. The series can be described thus: Tick bioassay, modified disposable pipette method, treated vials (Example 9). The class given is in vivo, Ixodes scapularis. Here is the method: Tick Colonies. […] There was no known pesticide used at this location. Ticks were maintained at 21° C., 90% RH, and received a 16:8 h (light:dark) cycle as described in […]. Med. […] Tick and Flea Bioassays. […] A control treated with acetone only was run with each series. Tick and flea susceptibility was evaluated using a modified disposable pipette method. See, Barnard, D. R., et al., J. Econ. […] Three to 4 holes were made in the plastic cap to allow for air exchange. Nymphal ticks and adult fleas were then placed directly into the vials using forceps. Vials containing ticks or fleas were placed in desiccators for 24 h at 21° C. and 90% RH. […] For each time point, if ticks were incapable of movement, maintaining normal posture, leg coordination, ability to right themselves, or any signs of life, they were considered moribund or dead.

The next series relates to X. cheopis adults. The series can be described thus: Flea bioassay, treated vials (Example 9). Format: in vivo. The settings on record: 24 h exposure, 95% CI in parentheses. Here is the method:
Flea Colonies. Adult X. cheopis fleas (1–3 wk old) were obtained from a colony founded more than eight years ago using adults received from Tom Schwan, Rocky Mountain Laboratories, Hamilton, Mont. The area from which these original adult fleas were obtained, and the resulting colony, have no known histories of pesticide exposure.
Tick and Flea Bioassays. Concentrations of the compounds were prepared by 2-fold serial dilutions of a 0.5% (wt:vol) solution of the extracts in acetone. […] A control treated with acetone only was run with each series. Tick and flea susceptibility was evaluated using a modified disposable pipette method. See, Barnard, D. R., et al., J. Econ. Entomol.
(§2) The inner surface of 2-dram friction cap vials were treated with the compound/acetone solution, or acetone only as a control, and left to air-dry overnight. Three to 4 holes were made in the plastic cap to allow for air exchange. Nymphal ticks and adult fleas were then placed directly into the vials using forceps. Vials containing ticks or fleas were placed in desiccators for 24 h at 21° C. and 90% RH. Morbidity and mortality was recorded at 1, 2, 4, 8, and 24 h after initial exposure.

Another series concerns Ae. aegypti adults. Description: Mosquito bottle bioassay (Example 9). Format: in vivo. The settings on record: 24 h exposure, 95% CI in parentheses. Here is the method:
Mosquito Colonies. Aedes aegypti adult mosquitoes were obtained from an existing colony at the Centers for Disease Control and Prevention (CDC), Division of Vector-Borne Infectious Diseases (DVBID), Fort Collins, Colo. This colony has been maintained for over fifteen years with no known history of exposure to pesticides. Mosquitoes were reared at 28° C., 85% RH, and a 14:10 h (light:dark) cycle. Larvae were grown in de-ionized water and fed ground liver powder solution ad libitum. Fourth instars were removed and placed in emergence cages, and adults were fed a 2% sucrose solution until assayed. Adults were exposed to test products at 4–7 d after emergence.
(§3) Mosquit Bioassay. Adult mosquitoes were tested using the bottle bioassay method of Brogden, W. G., and McAllister, J. C., J. Am. Mosq. Control Assoc. 14:159–64 (1998), with minor modifications. Natural product extracts were two-fold serially diluted for a total of 8 concentrations ranging from 0.002% to 0.25% in 1.5 ml of acetone. Individual dilutions were added to 250 ml Wheaton glass bottles and capped. Bottles were manipulated to evenly coat all inner surfaces. The caps were removed and bottles were allowed to air-dry overnight. Once bottles were completely dry, 10–50 adult mosquitoes were aspirated into the bottles. Mosquitoes were held in the bottles for 24 h at 23° C. and 85% RH. Morbidity and mortality were recorded at 15, 30, 45, and 60 min and 24 hour intervals. One bottle for each replicate was treated with acetone only and served as a control. The dose-mortality data was evaluated with probit analysis, using the LdP Line software, to determine LC50 and LC90 values.

Series [3] relates to nymphal Ixodes scapularis. The series can be described thus: Treated-vial biocidal screening, 2% acetone solutions (Example 2). The class given is in vivo. Here is the method: as §1
(§4) Numbers in parentheses refer to length of treatment in terms of hours (h) or weeks (wk). Data is presented in terms of number killed/number tested. For test periods longer than 24 hours, the treated vials were allowed to sit for the stated period after drying (72 h, 4 wk, or 5 wk) and each group of arthropods was added to the vials for the final 24 h of the test period.

Series [4] relates to adult I. scapularis ticks. The series can be described thus: Treated-vial biocidal screening, residual challenge (Example 2). The settings on record: treated vials sat 4 wk; arthropods added for final 24 h. The class given is in vivo, Ixodes scapularis. Here is the method:
as §1, §4

For series [5], the system named is adult Xenopsylla cheopis fleas. The description is as above. The class given is in vivo. As to conditions: treated vials sat 5 wk; arthropods added for final 24 h. Here is the method: as §1, §4
The subject of series [6] is Aedes aegypti adults. Description: Treated-vial bioassay on mosquito (Example 3). Format: in vivo. As to conditions: 24 hours challenge. The procedure: as §1
Using a bioassay method similar to that presented in Example #2, the susceptibility of Aedes aegypti adults to the five compounds presented in Example #2 at 24 hours challenge was determined to be 100% mortality except for nootkatin (20% mortality).

The subject of the next series is Culex p. pipiens. Description: Mosquito susceptibility, serial dilutions (Example 8). As to conditions: in vivo.
In the next series the test system is Ixodes scapularis nymphs. Description: Residual activity, treated vials aged before loading (Example 9). The class given is in vivo. The procedure: (§5) Tick and Flea Bioassays. Concentrations of the compounds were prepared by 2-fold serial dilutions of a 0.5% (wt:vol) solution of the extracts in acetone. The approximate toxicity of individual compounds was determined with a total of 8 doses ranging from 0.002% to 0.25%. […] A control treated with acetone only was run with each series. Tick and flea susceptibility was evaluated using a modified disposable pipette method. See, Barnard, D. R., et al., J. Econ. Entomol. 74:466–69 (1981).
as §2, with “Groups of 10 nymphal I. scapularis and X. cheopis fleas were used in all tests, resulting in a total of 5,240 nymphs and 4,860 fleas exposed to the compounds. The” for “The”

For series [7], the system named is Xenopsylla cheopis adults. The series is described as above. The class given is in vivo. Here is the method: as §5
as §2, with “Groups of 10 nymphal I. scapularis and X. cheopis fleas were used in all tests, resulting in a total of 5,240 nymphs and 4,860 fleas exposed to the compounds. The” for “The”

Series [8] deals with Aedes aegypti adults. Description: Residual activity, treated bottles aged before loading (Example 9). The class given is in vivo. The procedure:
as §3

Series [9] concerns ticks, fleas, and mosquitoes. The series can be described thus: Residual activity, overall statements for ticks, fleas and mosquitoes (Example 9). The settings on record: 1 to 4 weeks after treatment.
Where [10] appears, read: 24 h exposure, 95% CI in parentheses.
Setting [11] is: residual activity at 1 week after treatment.
[12] abbreviates: residual activity at 2 weeks after treatment.
Where [13] appears, read: residual activity at 4 weeks after treatment.

The structures appear in SMILES notation. ≈ marks a conversion by molar mass, not a printed value. Like-named read-outs stand apart in the source and are kept apart here. Bounds are passed on as bounds.

On to `COc1cc(C(C)C)ccc1C` [Compound 3, Methyl carvacrol], for which the “pesticidal activity in initial screening” value in series [1] is listed as “no pesticidal activity”.
`C=C(C)[C@@H]1CCC2=C[C@@H](O)C[C@@H](C)[C@]2(C)C1` [Compound 12, Nootkatol]: the “biocidal activity compared with nootkatene” value in series [2] is reported as “essentially equivalent to the activity of nootkatene”. The LC50 in the series on I. scapularis nymphs (setting [10]) is reported as 0.023 (0.017–0.03) percent concentration, wt:vol; in the series with I. scapularis nymphs (24 h exposure, 95% CI in parentheses, listed as compound 12), 0.023 percent concentration, wt:vol; in the series with X. cheopis adults, 0.024 (0.018–0.034) percent concentration, wt:vol; with X. cheopis adults (listed as compound 12), 0.024 percent concentration, wt:vol; with Ae. aegypti adults, 0.004 (0.0032–0.0048) percent concentration, wt:vol; with Ae. aegypti adults (listed as compound 12), 0.004 percent concentration, wt:vol. For the same compound, the LC90 in the series with I. scapularis nymphs (setting [10]) was 0.059 (0.042–0.116) percent concentration, wt:vol; in the series on X. cheopis adults, 0.1 (0.065–0.196) percent concentration, wt:vol; in the series on Ae. aegypti adults, 0.01 (0.008–0.014) percent concentration, wt:vol.
With `CC(C)=CCc1ccc(O)c(=O)cc1C(C)C` [Compound 11, Nootkatin], the “I. scapularis nymphs (24 h), number killed/number tested” value in series [3] (2% acetone solution (wt./vol.) dried in vials, 24 h) is given as 1/10. Further, in series [3] (treated vials sat 72 h, arthropods added for final 24 h), the “I. scapularis nymphs (72 h), number killed/number tested” value is on record as 0/5. Further, the “I. scapularis adults (4 wk), number killed/number tested” value in [4] is recorded as 0/5. Besides, the “X. cheopis adults (5 wk), number killed/number tested” value in series [5] is on record as 0/5. Moreover, in the series on Aedes aegypti adults [6], the mortality was 20%. Moreover, in the series with Ae. aegypti adults, the LC50 is 0.852 percent concentration, wt:vol and the LC90 is 7.869 percent concentration, wt:vol.
For `C=C(CO)C1CCC2=CCC[C@@H](C)[C@]2(C)C1` (some centres unmarked) [Compound 10, 13-hydroxy-valencene], in the series with Culex p. pipiens, the “C. pipiens LD50” value is < 4.5×10^−3. Besides, the LC50 with I. scapularis nymphs (Ixodes scapularis, 24 h) is 51 µg/mL (≈ 231 µM); in the series on X. cheopis adults (Xenopsylla cheopis, 24 h, read-out: LC50) it was 83 µg/mL (≈ 377 µM); with Ae. aegypti adults (Aedes aegypti, 24 h, read-out: LC50), 34 µg/mL (≈ 154 µM); in the series on Ixodes scapularis nymphs (setting [11]), 0.0071 (0.0055–0.0091) percent concentration, wt:vol; in the series with Ixodes scapularis nymphs (setting [12]), 0.0083 (0.0057–0.011) percent concentration, wt:vol; in the series with Ixodes scapularis nymphs (setting [13]), 0.031 percent concentration, wt:vol. The LC50 in [7] (setting [11]) was 0.03 (0.022–0.041) percent concentration, wt:vol; in series [7] (setting [12]), 0.039 (0.029–0.053) percent concentration, wt:vol; with Aedes aegypti adults [8] (setting [11]), 0.024 (0.02–0.028) percent concentration, wt:vol; in the series on Aedes aegypti adults [8] (setting [12]) it was 0.014 (0.012–0.016) percent concentration, wt:vol; in the series with Aedes aegypti adults [8] (setting [13]) it was 0.013 (0.0089–0.017) percent concentration, wt:vol. Besides, the LC90 was 160 µg/mL (≈ 726 µM) in the series on I. scapularis nymphs (Ixodes scapularis, 24 h, 24 h exposure, 95% CI in parentheses, read-out: LC90); 210 µg/mL (≈ 953 µM) with X. cheopis adults (Xenopsylla cheopis, 24 h, read-out: LC90); 0.019 (0.014–0.031) percent concentration, wt:vol in the series on Ixodes scapularis nymphs (setting [11]); 0.044 (0.029–0.081) percent concentration, wt:vol with Ixodes scapularis nymphs (setting [12]); 0.303 percent concentration, wt:vol with Ixodes scapularis nymphs (setting [13]); 0.113 (0.074–0.226) percent concentration, wt:vol in series [7] (setting [11]). The LC90 in series [7] (setting [12]) was 0.131 (0.087–0.268) percent concentration, wt:vol; in the series with Aedes aegypti adults [8] (setting [11]) it was 0.058 (0.046–0.081) percent concentration, wt:vol; with Aedes aegypti adults [8] (setting [12]), 0.021 (0.019–0.027) percent concentration, wt:vol; in the series on Aedes aegypti adults [8] (setting [13]) it was 0.04 (0.029–0.074) percent concentration, wt:vol. Also, the EC90 with Ae. aegypti adults (Aedes aegypti, 24 h, read-out: LC90 (the source's name)) was 140 µg/mL (≈ 635 µM). Moreover, the “residual activity (in words)” value in [9] is given as “considerable biological activity”.
`CC1=CCC(O)(C(C)C)CC1` (centres unmarked) [Compound 2, Terpinen-4-ol]: the “pesticidal activity in initial screening” value in [1] is “no pesticidal activity”.
On the same count and under the same terms, the same measure for `CC1=CCC2C(C1)C2(C)C` (centres unmarked) [Compound 1, 3-Carene]: “no pesticidal activity”.
